Source: ChEMBL document CHEMBL1129930, “Analogues of methotrexate in rheumatoid arthritis. 2. Effects of 5-deazaaminopterin, 5,10-dideazaaminopterin, and analogues on type II collagen-induced arthritis in mice” (J Med Chem, 1997)

Tests used:
[1] = test system: Mus musculus; assay: Incidence of disease (mouse type II collagen) was scored as the percentage of animals within each experimental group that exhibited joint or limb inflammation on day 37 at intraperitoneal dose of 10 mg/kg; type: functional
[2] = test system: Mus musculus; assay: Incidence of disease (mouse type II collagen) was scored as the percentage of animals within each experimental group that exhibited joint or limb inflammation on day 37 at intraperitoneal dose of 5 mg/kg; type: functional
[3] = test system: Mus musculus; assay: Incidence of disease (mouse type II collagen) was scored as the percentage of animals within each experimental group that exhibited joint or limb inflammation on day 23 at intraperitoneal dose of 10 mg/kg; type: functional
[4] = test system: Mus musculus; assay: Incidence of disease (mouse type II collagen) was scored as the percentage of animals within each experimental group that exhibited joint or limb inflammation on day 23 at intraperitoneal dose of 5 mg/kg; type: functional
[5] = test system: Mus musculus; assay: Incidence of disease (mouse type II collagen) was scored as the percentage of animals within each experimental group that exhibited joint or limb inflammation on day 44 at intraperitoneal dose of 10 mg/kg; type: functional
[6] = test system: Mus musculus; assay: Incidence of disease (mouse type II collagen) was scored as the percentage of animals within each experimental group that exhibited joint or limb inflammation on day 44 at intraperitoneal dose of 5 mg/kg; type: functional
[7] = test system: Mus musculus; assay: Incidence of disease (mouse type II collagen) was scored as the percentage of animals within each experimental group that exhibited joint or limb inflammation on day 30 at intraperitoneal dose of 10 mg/kg; type: functional
[8] = test system: Mus musculus; assay: Incidence of disease (mouse type II collagen) was scored as the percentage of animals within each experimental group that exhibited joint or limb inflammation on day 30 at intraperitoneal dose of 5 mg/kg; type: functional
[9] = test system: Mus musculus; assay: Tested for antiinflammatory activity on mouse type II collagen arthritis as Paw swelling of all animals in each group on day 44 at intraperitoneal dose of 5 mg/kg; type: functional
[10] = test system: Mus musculus; assay: Tested for antiinflammatory activity on mouse type II collagen arthritis as Paw swelling of all animals in each group on day 30 at intraperitoneal dose of 10 mg/kg; type: functional
[11] = test system: Mus musculus; assay: Tested for antiinflammatory activity on mouse type II collagen arthritis as Paw swelling of all animals in each group on day 23 at intraperitoneal dose of 10 mg/kg; type: functional
[12] = test system: Mus musculus; assay: Tested for antiinflammatory activity on mouse type II collagen arthritis as Paw swelling of all animals in each group on day 23 at intraperitoneal dose of 5 mg/kg; type: functional
[13] = test system: Mus musculus; assay: Tested for antiinflammatory activity on mouse type II collagen arthritis as Paw swelling of all animals in each group on day 44 at intraperitoneal dose of 10 mg/kg; type: functional
[14] = test system: Mus musculus; assay: Tested for antiinflammatory activity on mouse type II collagen arthritis as Paw swelling of all animals in each group on day 37 at intraperitoneal dose of 5 mg/kg; type: functional
[15] = test system: Mus musculus; assay: Tested for antiinflammatory activity on mouse type II collagen arthritis as Paw swelling of all animals in each group on day 37 at intraperitoneal dose of 10 mg/kg; type: functional
[16] = test system: Mus musculus; assay: Tested for antiinflammatory activity on mouse type II collagen arthritis as Paw swelling of all animals in each group on day 30 at intraperitoneal dose of 5 mg/kg; type: functional
[17] = Concentration required to inhibit the growth of chang liver cells.; type: functional; details: Homo sapiens
[18] = test system: L1210; assay: Concentration required to inhibit the growth of L1210 cells.; type: functional, cell-based; details: Mus musculus
[19] = test system: Mus musculus; assay: Incidence of disease (mouse type II collagen) was scored as the percentage of animals within each experimental group that exhibited joint or limb inflammation on day 37 at intraperitoneal dose of 0.75 mg/kg; type: functional
[20] = test system: Mus musculus; assay: Incidence of disease (mouse type II collagen) was scored as the percentage of animals within each experimental group that exhibited joint or limb inflammation on day 37 at intraperitoneal dose of 1.5 mg/kg; type: functional
[21] = test system: Mus musculus; assay: Incidence of disease (mouse type II collagen) was scored as the percentage of animals within each experimental group that exhibited joint or limb inflammation on day 37 at intraperitoneal dose of 3 mg/kg; type: functional
[22] = test system: Mus musculus; assay: Incidence of disease (mouse type II collagen) was scored as the percentage of animals within each experimental group that exhibited joint or limb inflammation on day 23 at intraperitoneal dose of 0.38 mg/kg; type: functional
[23] = test system: Mus musculus; assay: Incidence of disease (mouse type II collagen) was scored as the percentage of animals within each experimental group that exhibited joint or limb inflammation on day 23 at intraperitoneal dose of 0.75 mg/kg; type: functional
[24] = test system: Mus musculus; assay: Incidence of disease (mouse type II collagen) was scored as the percentage of animals within each experimental group that exhibited joint or limb inflammation on day 23 at intraperitoneal dose of 1.5 mg/kg; type: functional
[25] = test system: Mus musculus; assay: Incidence of disease (mouse type II collagen) was scored as the percentage of animals within each experimental group that exhibited joint or limb inflammation on day 23 at intraperitoneal dose of 3 mg/kg; type: functional
[26] = test system: Mus musculus; assay: Incidence of disease (mouse type II collagen) was scored as the percentage of animals within each experimental group that exhibited joint or limb inflammation on day 23 at intraperitoneal dose of 6 mg/kg (1 animal died); type: functional
[27] = test system: Mus musculus; assay: Incidence of disease (mouse type II collagen) was scored as the percentage of animals within each experimental group that exhibited joint or limb inflammation on day 37 at intraperitoneal dose of 0.38 mg/kg; type: functional
[28] = test system: Mus musculus; assay: Incidence of disease (mouse type II collagen) was scored as the percentage of animals within each experimental group that exhibited joint or limb inflammation on day 44 at intraperitoneal dose of 1.5 mg/kg; type: functional
[29] = test system: Mus musculus; assay: Incidence of disease (mouse type II collagen) was scored as the percentage of animals within each experimental group that exhibited joint or limb inflammation on day 44 at intraperitoneal dose of 3 mg/kg; type: functional
[30] = test system: Mus musculus; assay: Incidence of disease (mouse type II collagen) was scored as the percentage of animals within each experimental group that exhibited joint or limb inflammation on day 44 at intraperitoneal dose of 6 mg/kg (1 animal died); type: functional
[31] = test system: Mus musculus; assay: Incidence of disease (mouse type II collagen) was scored as the percentage of animals within each experimental group that exhibited joint or limb inflammation on day 44 at intraperitoneal dose of 0.38 mg/kg; type: functional
[32] = test system: Mus musculus; assay: Incidence of disease (mouse type II collagen) was scored as the percentage of animals within each experimental group that exhibited joint or limb inflammation on day 44 at intraperitoneal dose of 0.75 mg/kg; type: functional
[33] = test system: Mus musculus; assay: Incidence of disease (mouse type II collagen) was scored as the percentage of animals within each experimental group that exhibited joint or limb inflammation on day 30 at intraperitoneal dose of 6 mg/kg (1 animal died); type: functional
[34] = test system: Mus musculus; assay: Incidence of disease (mouse type II collagen) was scored as the percentage of animals within each experimental group that exhibited joint or limb inflammation on day 30 at intraperitoneal dose of 3 mg/kg; type: functional
[35] = test system: Mus musculus; assay: Incidence of disease (mouse type II collagen) was scored as the percentage of animals within each experimental group that exhibited joint or limb inflammation on day 37 at intraperitoneal dose of 6 mg/kg (1 animal died); type: functional
[36] = test system: Mus musculus; assay: Incidence of disease (mouse type II collagen) was scored as the percentage of animals within each experimental group that exhibited joint or limb inflammation on day 30 at intraperitoneal dose of 0.38 mg/kg; type: functional
[37] = test system: Mus musculus; assay: Incidence of disease (mouse type II collagen) was scored as the percentage of animals within each experimental group that exhibited joint or limb inflammation on day 30 at intraperitoneal dose of 0.75 mg/kg; type: functional
[38] = test system: Mus musculus; assay: Incidence of disease (mouse type II collagen) was scored as the percentage of animals within each experimental group that exhibited joint or limb inflammation on day 30 at intraperitoneal dose of 1.5 mg/kg; type: functional
[39] = test system: Mus musculus; assay: Tested for antiinflammatory activity on mouse type II collagen arthritis as Paw swelling of all animals in each group on day 44 at intraperitoneal dose of 1.5 mg/kg; type: functional
[40] = test system: Mus musculus; assay: Tested for antiinflammatory activity on mouse type II collagen arthritis as Paw swelling of all animals in each group on day 30 at intraperitoneal dose of 3 mg/kg; type: functional
[41] = test system: Mus musculus; assay: Tested for antiinflammatory activity on mouse type II collagen arthritis as Paw swelling of all animals in each group on day 30 at intraperitoneal dose of 6 mg/kg; type: functional
[42] = test system: Mus musculus; assay: Tested for antiinflammatory activity on mouse type II collagen arthritis as Paw swelling of all animals in each group on day 23 at intraperitoneal dose of 0.75 mg/kg; type: functional
[43] = test system: Mus musculus; assay: Tested for antiinflammatory activity on mouse type II collagen arthritis as Paw swelling of all animals in each group on day 23 at intraperitoneal dose of 6 mg/kg; type: functional
[44] = test system: Mus musculus; assay: Tested for antiinflammatory activity on mouse type II collagen arthritis as Paw swelling of all animals in each group on day 30 at intraperitoneal dose of 0.38 mg/kg; type: functional
[45] = test system: Mus musculus; assay: Tested for antiinflammatory activity on mouse type II collagen arthritis as Paw swelling of all animals in each group on day 44 at intraperitoneal dose of 0.75 mg/kg; type: functional
[46] = test system: Mus musculus; assay: Tested for antiinflammatory activity on mouse type II collagen arthritis as Paw swelling of all animals in each group on day 44 at intraperitoneal dose of 3 mg/kg; type: functional
[47] = test system: Mus musculus; assay: Tested for antiinflammatory activity on mouse type II collagen arthritis as Paw swelling of all animals in each group on day 37 at intraperitoneal dose of 3 mg/kg; type: functional
[48] = test system: Mus musculus; assay: Tested for antiinflammatory activity on mouse type II collagen arthritis as Paw swelling of all animals in each group on day 37 at intraperitoneal dose of 6 mg/kg; type: functional
[49] = test system: Mus musculus; assay: Tested for antiinflammatory activity on mouse type II collagen arthritis as Paw swelling of all animals in each group on day 44 at intraperitoneal dose of 0.38 mg/kg; type: functional
[50] = test system: Mus musculus; assay: Tested for antiinflammatory activity on mouse type II collagen arthritis as Paw swelling of all animals in each group on day 30 at intraperitoneal dose of 0.75 mg/kg; type: functional
[51] = test system: Mus musculus; assay: Tested for antiinflammatory activity on mouse type II collagen arthritis as Paw swelling of all animals in each group on day 30 at intraperitoneal dose of 1.5 mg/kg; type: functional
[52] = test system: Mus musculus; assay: Tested for antiinflammatory activity on mouse type II collagen arthritis as Paw swelling of all animals in each group on day 37 at intraperitoneal dose of 0.38 mg/kg; type: functional
[53] = test system: Mus musculus; assay: Tested for antiinflammatory activity on mouse type II collagen arthritis as Paw swelling of all animals in each group on day 37 at intraperitoneal dose of 0.75 mg/kg; type: functional
[54] = test system: Mus musculus; assay: Tested for antiinflammatory activity on mouse type II collagen arthritis as Paw swelling of all animals in each group on day 37 at intraperitoneal dose of 1.5 mg/kg; type: functional
[55] = test system: Mus musculus; assay: Tested for antiinflammatory activity on mouse type II collagen arthritis as Paw swelling of all animals in each group on day 44 at intraperitoneal dose of 6 mg/kg; type: functional
[56] = test system: Mus musculus; assay: Tested for antiinflammatory activity on mouse type II collagen arthritis as Paw swelling of all animals in each group on day 23 at intraperitoneal dose of 0.38 mg/kg; type: functional

For `C#CCC(Cc1cnc2nc(N)nc(N)c2c1C)c1ccc(C(=O)NC(CCC(=O)O)C(=O)O)cc1` (stereo unspecified), the Animals [1] was 71%, the Animals [2] was 62% and the Animals [3] was 14%. It also gave an Animals [4] of 12%, an Animals [5] of 71% and an Animals [6] of 88%. The Animals [7] was 57%, the Animals [8] was 12% and the Paw swelling [9] was 2.64 mm. The Paw swelling [10] was 2.37 mm, the Paw swelling [11] was 2.19 mm and the Paw swelling [12] was 2.18 mm. The Paw swelling [13] was 2.7 mm, the Paw swelling [14] was 2.45 mm and the Paw swelling [15] was 2.65 mm. It also gave a Paw swelling [16] of 2.17 mm.
With `C=CCN(Cc1cnc2nc(N)nc(N)c2c1C)c1ccc(C(=O)NC(CCC(=O)O)C(=O)O)cc1` (stereo unspecified) the IC50 [17] was 30 nM, the IC50 [18] was 3.4 nM and the Animals [19] was 38%. The Animals [20] was 25%, the Animals [21] was 0% and the Animals [22] was 0%. The Animals [23] was 0%, the Animals [24] was 0% and the Animals [25] was 0%. It also gave an Animals [26] of 0%, an Animals [27] of 38% and an Animals [28] of 50%. It also gave an Animals [29] of 0%, an Animals [30] of 0% and an Animals [31] of 62%. The Animals [32] was 50%, the Animals [33] was 0% and the Animals [34] was 0%. For the same molecule, the Animals [35] was 0%, the Animals [36] was 0% and the Animals [37] was 25%. For the same molecule, the Animals [38] was 12%, the Paw swelling [39] was 2.32 mm and the Paw swelling [40] was 2.12 mm. The Paw swelling [41] was 2.1 mm, the Paw swelling [42] was 2.17 mm and the Paw swelling [43] was 2.09 mm. The Paw swelling [44] was 2.17 mm, the Paw swelling [45] was 2.36 mm and the Paw swelling [46] was 2.16 mm. It also gave a Paw swelling [47] of 2.14 mm, a Paw swelling [48] of 2.15 mm and a Paw swelling [49] of 2.39 mm. For the same molecule, the Paw swelling [50] was 2.22 mm, the Paw swelling [51] was 2.24 mm and the Paw swelling [52] was 2.3 mm. The Paw swelling [53] was 2.33 mm, the Paw swelling [54] was 2.26 mm and the Paw swelling [55] was 2.13 mm. It also gave a Paw swelling [56] of 2.17 mm.
